For data set [1], the system named is Rattus norvegicus. Briefly: Antiinflammatory activity in Wistar rat assessed as inhibition of carrageenan-induced paw edema at 10 mg/kg indomethacin mol equivalent, ip administered 1 hr prior to carrageenan challenge measured at 1 hr relative to control. The format is functional. The conditions noted are these: route intraperitoneal.
Data set [2] deals with Rattus norvegicus. Kind of data set: Antiinflammatory activity in Wistar rat assessed as inhibition of carrageenan-induced paw edema at 10 mg/kg indomethacin mol equivalent, ip administered 1 hr prior to carrageenan challenge measured at 2 hrs relative to control. The format is functional. The settings on record: route intraperitoneal.
Data set [3] concerns Rattus norvegicus. Kind of data set: Antiinflammatory activity in Wistar rat assessed as inhibition of carrageenan-induced paw edema at 10 mg/kg indomethacin mol equivalent, ip administered 1 hr prior to carrageenan challenge measured at 3 hrs relative to control. The format is functional. The settings on record: route intraperitoneal.
The test system of data set [4] is Rattus norvegicus. Kind of data set: Antiinflammatory activity in Wistar rat assessed as inhibition of carrageenan-induced paw edema at 10 mg/kg indomethacin mol equivalent, ip administered 1 hr prior to carrageenan challenge measured at 4 hrs relative to control. The settings on record: route intraperitoneal. The format is functional.
Data set [5] has as its system Rattus norvegicus. Briefly: Antiinflammatory activity in Wistar rat assessed as inhibition of carrageenan-induced paw edema at 10 mg/kg indomethacin mol equivalent, ip administered 1 hr prior to carrageenan challenge measured at 24 hrs relative to control. The format is functional. The conditions noted are these: route intraperitoneal.
For data set [6], the system named is Mus musculus. Kind of data set: Toxicity in albino mouse assessed as appearance of toxic symptoms at 50 to 100 mg/kg indomethacin mol equivalent, ip measured after 24 hrs. The format is organism-based. Details: dose 50-100 mg/kg, route intraperitoneal. The conditions noted are these: in vivo.
Data set [7] deals with Mus musculus. Kind of data set: Toxicity in albino mouse assessed as mortality at 50 to 100 mg/kg indomethacin mol equivalent, ip measured after 24 hrs. The format is organism-based. Details: dose 50-100 mg/kg, route intraperitoneal. The settings on record: in vivo.
Data set [8] concerns Rattus norvegicus. Kind of data set: Ulcerogenic activity in Wistar rat assessed as ulcer index at 10 mg/kg indomethacin mol equivalent, po administered 3 days relative to control. The format is toxicity, organism-based. Details: dose 10 mg/kg, route oral. The settings on record: in vivo, 72 h.
Data set [9] deals with Rattus norvegicus. Kind of data set: Antiinflammatory activity in Wistar rat assessed as inhibition of carrageenan-induced paw edema at 10 mg/kg, ip administered 1 hr prior to carrageenan challenge measured at 1 hr relative to control. The format is functional. The conditions noted are these: route intraperitoneal.
Data set [10] relates to Rattus norvegicus. Kind of data set: Antiinflammatory activity in Wistar rat assessed as inhibition of carrageenan-induced paw edema at 10 mg/kg, ip administered 1 hr prior to carrageenan challenge measured at 2 hrs relative to control. The format is functional. The settings on record: route intraperitoneal.
Data set [11] has as its system Rattus norvegicus. Briefly: Antiinflammatory activity in Wistar rat assessed as inhibition of carrageenan-induced paw edema at 10 mg/kg, ip administered 1 hr prior to carrageenan challenge measured at 3 hrs relative to control. The format is functional. The settings on record: route intraperitoneal.
In data set [12] the test system is Rattus norvegicus. Briefly: Ulcerogenic activity in Wistar rat assessed as ulcer index at 10 mg/kg, po administered 3 days relative to control. The format is toxicity, organism-based. Details: dose 10 mg/kg, route oral. The settings on record: in vivo, 72 h.

SMILES strings stand for the structures.

`CC(=O)Nc1ccc(O)c(C(=O)O)c1`: the inhibition in vivo with Rattus norvegicus [1] is 43.3%; with Rattus norvegicus [2] it was 7.9%; in the data set on Rattus norvegicus [3], 1.3%; in the data set on Rattus norvegicus [4], 0%; in the data set with Rattus norvegicus [5], 0%.

Turning to `Cc1ncc([N+](=O)[O-])n1CCO` [METRONIDAZOLE], the inhibition in vivo was 66.3% with Rattus norvegicus [1]; 66.3% in the data set on Rattus norvegicus [2]; 60.8% in the data set on Rattus norvegicus [3]; 58.9% in the data set with Rattus norvegicus [4]; 0% in the data set on Rattus norvegicus [5]. Further, the Activity result in the data set with Mus musculus [6] and with Mus musculus [7] was “Non-toxic” throughout. The UI in the data set with Rattus norvegicus [8] worked out at 0.

Take `Cc1ncc([N+](=O)[O-])n1CCOC(=O)c1cc(NC(=O)C(C)NC(=O)OCc2ccccc2)ccc1O` (racemic): the inhibition in vivo was found to be 57.9% with Rattus norvegicus [1]; 47% with Rattus norvegicus [2]; 44.8% in the data set on Rattus norvegicus [3]; 41.1% in the data set on Rattus norvegicus [4]; 0% in the data set with Rattus norvegicus [5].

Regarding `Cc1ncc([N+](=O)[O-])n1CCOC(=O)c1cc(NC(=O)CNC(=O)OCc2ccccc2)ccc1O`, the inhibition in vivo was 56.1% in the data set with Rattus norvegicus [1]; 56.5% in the data set on Rattus norvegicus [2]; 57% with Rattus norvegicus [3]; 52.8% in the data set on Rattus norvegicus [4]; 17.1% in the data set with Rattus norvegicus [5].

As for `Cc1ncc([N+](=O)[O-])n1CCOC(=O)c1cc(NC(=O)[C@H](CCCCN)NC(=O)OCc2ccccc2)ccc1O`, the inhibition in vivo was 44.3% in the data set on Rattus norvegicus [1]; 37.8% in the data set on Rattus norvegicus [2]; 36.9% with Rattus norvegicus [3]; 33.5% in the data set on Rattus norvegicus [4]; 23.4% in the data set on Rattus norvegicus [5].

For the compound `Nc1ccc(O)c(C(=O)O)c1` [MESALAMINE], the inhibition in vivo in the data set on Rattus norvegicus [1] turned out to be 63.8%; in the data set on Rattus norvegicus [2] it was 53.2%; in the data set with Rattus norvegicus [3], 57.5%; in the data set on Rattus norvegicus [4], 52.3%; in the data set with Rattus norvegicus [5], 38.6%.

Consider `CC(=O)Nc1ccc(O)c(C(=O)OCCn2c([N+](=O)[O-])cnc2C)c1`, for which the inhibition in vivo was 63.4% in the data set on Rattus norvegicus [1]; 24.5% in the data set on Rattus norvegicus [2]; 16.6% in the data set on Rattus norvegicus [3]; 15.5% in the data set with Rattus norvegicus [4]; 0% in the data set with Rattus norvegicus [5].

As for `Cc1ncc([N+](=O)[O-])n1CCOC(=O)c1cc(NC(=O)[C@H](Cc2ccccc2)NC(=O)OCc2ccccc2)ccc1O`, the inhibition in vivo with Rattus norvegicus [1] is 54.8%; in the data set on Rattus norvegicus [2] it was 30.1%; with Rattus norvegicus [3], 29%; with Rattus norvegicus [4], 27.5%; in the data set with Rattus norvegicus [5] it was 33.2%.

Consider `Cc1ncc([N+](=O)[O-])n1CCOC(=O)c1cc(NC(=O)[C@@H](NC(=O)OCc2ccccc2)C(C)C)ccc1O`, for which the inhibition in vivo in the data set on Rattus norvegicus [1] was determined as 74.4%; in the data set on Rattus norvegicus [2] it was 64.5%; in the data set on Rattus norvegicus [3], 61.5%; in the data set on Rattus norvegicus [4] it was 58.2%; in the data set with Rattus norvegicus [5], 51.7%. The Activity result in the data set on Mus musculus [6] and in the data set with Mus musculus [7] was “Non-toxic” each time. Further, the UI in the data set with Rattus norvegicus [8] came to 0.

With `COc1ccc2c(c1)c(CC(=O)O)c(C)n2C(=O)c1ccc(Cl)cc1` [INDOMETHACIN], the values for the inhibition in vivo at 10 mg/kg in the data set on Rattus norvegicus [9], in the data set with Rattus norvegicus [10] and with Rattus norvegicus [11] were 48.3%, 55.3% and 61.3%, respectively. Further, the UI in the data set on Rattus norvegicus [12] worked out at 6.

With `Cc1ncc([N+](=O)[O-])n1CCOC(=O)c1cc(NC(=O)[C@H](C)NC(=O)OCc2ccccc2)ccc1O`, the inhibition in vivo came out at 58.5% in the data set with Rattus norvegicus [1]; 37.5% in the data set with Rattus norvegicus [2]; 37.1% in the data set with Rattus norvegicus [3]; 36.1% in the data set on Rattus norvegicus [4]; 11.6% in the data set with Rattus norvegicus [5].

For the origin of these results see ChEMBL document CHEMBL3421592, “Synthesis and QSAR study of novel anti-inflammatory active mesalazine-metronidazole conjugates” (Bioorg Med Chem Lett, 2015).
